Test results: ChEMBL document CHEMBL1142466, “Itk kinase inhibitors: initial efforts to improve the metabolical stability and the cell activity of the benzimidazole lead” (Bioorg Med Chem Lett, 2008)

What was measured:
[1] = target: T1, Tyrosine-protein kinase ITK/TSK (Homo sapiens, UniProt Q08881); test: Inhibition of recombinant ITK by DELFIA assay
T1 sequence (Q08881 whole entry): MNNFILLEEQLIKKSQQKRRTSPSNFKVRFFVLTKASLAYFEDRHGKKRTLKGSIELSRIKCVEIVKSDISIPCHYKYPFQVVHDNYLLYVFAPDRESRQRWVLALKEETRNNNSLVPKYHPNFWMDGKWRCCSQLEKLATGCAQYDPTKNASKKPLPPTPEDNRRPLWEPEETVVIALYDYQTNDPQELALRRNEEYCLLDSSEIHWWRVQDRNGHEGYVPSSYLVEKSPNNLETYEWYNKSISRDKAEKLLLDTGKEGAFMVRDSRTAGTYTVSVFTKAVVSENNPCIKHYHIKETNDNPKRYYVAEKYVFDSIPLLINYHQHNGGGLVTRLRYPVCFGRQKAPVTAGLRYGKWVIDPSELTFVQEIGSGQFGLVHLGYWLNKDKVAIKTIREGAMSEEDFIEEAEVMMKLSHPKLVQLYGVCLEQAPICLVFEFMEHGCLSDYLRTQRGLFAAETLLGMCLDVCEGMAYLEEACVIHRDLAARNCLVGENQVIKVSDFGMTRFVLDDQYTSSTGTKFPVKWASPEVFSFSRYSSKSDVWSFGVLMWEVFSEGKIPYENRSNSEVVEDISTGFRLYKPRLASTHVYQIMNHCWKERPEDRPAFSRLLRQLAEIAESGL

[2] = target: Insulin receptor (Homo sapiens, UniProt P06213); test: Inhibition of IRK
[3] = target: T2, Tyrosine-protein kinase Tec (Homo sapiens, UniProt P42680); test: Inhibition of Tec kinase
T2 sequence (P42680 whole entry): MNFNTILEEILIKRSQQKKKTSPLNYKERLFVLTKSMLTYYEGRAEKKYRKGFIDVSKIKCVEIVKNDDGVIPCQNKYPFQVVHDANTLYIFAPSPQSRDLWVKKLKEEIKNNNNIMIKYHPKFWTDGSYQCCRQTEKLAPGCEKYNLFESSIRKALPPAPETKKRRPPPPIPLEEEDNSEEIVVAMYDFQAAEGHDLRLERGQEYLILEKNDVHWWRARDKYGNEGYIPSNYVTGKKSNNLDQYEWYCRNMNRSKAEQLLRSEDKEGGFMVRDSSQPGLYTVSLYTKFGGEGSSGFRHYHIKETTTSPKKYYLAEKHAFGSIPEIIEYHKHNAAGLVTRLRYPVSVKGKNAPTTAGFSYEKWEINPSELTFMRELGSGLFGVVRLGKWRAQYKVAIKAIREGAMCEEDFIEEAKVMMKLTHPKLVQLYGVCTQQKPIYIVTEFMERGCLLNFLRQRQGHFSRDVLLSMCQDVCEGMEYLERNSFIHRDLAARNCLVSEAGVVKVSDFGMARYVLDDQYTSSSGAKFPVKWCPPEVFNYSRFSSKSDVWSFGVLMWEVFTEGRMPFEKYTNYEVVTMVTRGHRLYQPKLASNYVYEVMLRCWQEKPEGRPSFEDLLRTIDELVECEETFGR

[4] = target: T3, Tyrosine-protein kinase TXK (Homo sapiens, UniProt P42681); test: Inhibition of TXK
T3 sequence (P42681 whole entry): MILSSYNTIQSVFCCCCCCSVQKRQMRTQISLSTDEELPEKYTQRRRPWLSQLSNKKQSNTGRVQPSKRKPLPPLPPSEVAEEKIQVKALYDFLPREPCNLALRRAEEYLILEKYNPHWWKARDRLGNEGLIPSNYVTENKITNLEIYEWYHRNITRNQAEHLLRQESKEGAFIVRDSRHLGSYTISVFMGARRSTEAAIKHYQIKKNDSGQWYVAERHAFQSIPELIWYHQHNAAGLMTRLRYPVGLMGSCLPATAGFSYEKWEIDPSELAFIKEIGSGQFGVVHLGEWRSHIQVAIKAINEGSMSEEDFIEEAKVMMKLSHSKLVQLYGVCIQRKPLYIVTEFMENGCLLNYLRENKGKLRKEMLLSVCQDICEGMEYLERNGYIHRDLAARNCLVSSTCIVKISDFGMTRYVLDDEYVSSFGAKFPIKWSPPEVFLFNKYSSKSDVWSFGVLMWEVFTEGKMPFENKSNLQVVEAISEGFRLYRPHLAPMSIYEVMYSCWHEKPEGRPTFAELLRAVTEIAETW

[5] = system: Jurkat; test: Cytotoxicity against human JURKAT cells; type: functional; conditions: read-out: TC50 (the source's name)
[6] = target: Cytochrome P450 2C9 (Homo sapiens, UniProt P11712); test: Inhibition of CYP2C9; type: ADME
[7] = target: Cytochrome P450 3A4 (Homo sapiens, UniProt P08684); test: Inhibition of CYP3A4; type: ADME
[8] = target: Tyrosine-protein kinase Lyn (Homo sapiens, UniProt P07948); test: Inhibition of Lyn
[9] = system: Mus musculus; test: Inhibition of anti-CD3-induced IL2 production in sc dosed mouse; type: functional, organism-based

Sequence of Insulin receptor (P06213 28-758 limits assumed): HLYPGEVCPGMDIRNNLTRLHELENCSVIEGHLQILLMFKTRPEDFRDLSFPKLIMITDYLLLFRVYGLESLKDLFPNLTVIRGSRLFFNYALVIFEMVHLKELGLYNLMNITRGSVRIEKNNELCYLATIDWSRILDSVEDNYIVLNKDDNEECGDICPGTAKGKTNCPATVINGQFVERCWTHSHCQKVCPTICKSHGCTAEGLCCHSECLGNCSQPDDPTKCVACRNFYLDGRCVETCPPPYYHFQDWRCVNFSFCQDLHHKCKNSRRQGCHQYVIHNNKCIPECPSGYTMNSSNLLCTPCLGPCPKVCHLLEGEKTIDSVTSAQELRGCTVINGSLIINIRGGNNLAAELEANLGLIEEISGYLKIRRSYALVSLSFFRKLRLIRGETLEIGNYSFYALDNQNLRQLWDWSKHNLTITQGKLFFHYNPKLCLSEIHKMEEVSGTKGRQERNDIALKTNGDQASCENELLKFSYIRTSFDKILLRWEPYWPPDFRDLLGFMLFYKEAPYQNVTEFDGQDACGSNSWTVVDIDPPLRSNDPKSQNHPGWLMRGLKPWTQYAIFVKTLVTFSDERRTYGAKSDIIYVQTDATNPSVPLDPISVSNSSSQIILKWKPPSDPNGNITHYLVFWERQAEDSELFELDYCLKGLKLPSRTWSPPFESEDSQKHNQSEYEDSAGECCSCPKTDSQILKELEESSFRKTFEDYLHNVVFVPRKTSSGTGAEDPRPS
Sequence of Insulin receptor (P06213 763-1382 limits assumed): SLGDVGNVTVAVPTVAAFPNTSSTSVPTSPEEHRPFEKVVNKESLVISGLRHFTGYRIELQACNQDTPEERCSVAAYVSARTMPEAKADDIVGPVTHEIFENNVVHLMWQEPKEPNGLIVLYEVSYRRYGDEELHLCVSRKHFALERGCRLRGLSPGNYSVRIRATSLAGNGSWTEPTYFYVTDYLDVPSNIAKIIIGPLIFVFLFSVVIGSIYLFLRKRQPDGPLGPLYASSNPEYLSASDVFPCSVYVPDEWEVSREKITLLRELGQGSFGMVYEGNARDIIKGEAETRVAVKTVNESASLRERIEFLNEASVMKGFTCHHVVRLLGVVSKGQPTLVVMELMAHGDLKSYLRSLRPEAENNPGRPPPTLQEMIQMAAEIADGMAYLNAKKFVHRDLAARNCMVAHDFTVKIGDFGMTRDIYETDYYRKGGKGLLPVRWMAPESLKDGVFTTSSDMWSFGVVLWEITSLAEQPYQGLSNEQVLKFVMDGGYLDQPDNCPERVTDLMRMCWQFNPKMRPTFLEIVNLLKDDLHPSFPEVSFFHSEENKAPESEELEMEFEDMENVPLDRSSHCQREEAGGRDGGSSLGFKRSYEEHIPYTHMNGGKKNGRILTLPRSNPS
Sequence of Tyrosine-protein kinase Lyn (P07948 whole entry): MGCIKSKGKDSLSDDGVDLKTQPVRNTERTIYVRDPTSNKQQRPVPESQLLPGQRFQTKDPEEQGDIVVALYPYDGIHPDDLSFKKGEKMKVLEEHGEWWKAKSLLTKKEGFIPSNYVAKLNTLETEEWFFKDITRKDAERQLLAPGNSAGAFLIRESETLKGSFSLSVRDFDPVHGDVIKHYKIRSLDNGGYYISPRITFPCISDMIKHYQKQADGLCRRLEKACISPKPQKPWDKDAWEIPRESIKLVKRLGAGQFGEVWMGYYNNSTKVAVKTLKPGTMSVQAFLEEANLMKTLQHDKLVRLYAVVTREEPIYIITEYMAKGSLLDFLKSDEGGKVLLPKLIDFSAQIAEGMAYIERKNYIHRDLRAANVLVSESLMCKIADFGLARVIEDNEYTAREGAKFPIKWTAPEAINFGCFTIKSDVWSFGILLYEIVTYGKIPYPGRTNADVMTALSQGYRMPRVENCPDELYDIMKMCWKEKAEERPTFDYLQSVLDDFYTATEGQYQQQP
Sequence of Cytochrome P450 3A4 (P08684 whole entry): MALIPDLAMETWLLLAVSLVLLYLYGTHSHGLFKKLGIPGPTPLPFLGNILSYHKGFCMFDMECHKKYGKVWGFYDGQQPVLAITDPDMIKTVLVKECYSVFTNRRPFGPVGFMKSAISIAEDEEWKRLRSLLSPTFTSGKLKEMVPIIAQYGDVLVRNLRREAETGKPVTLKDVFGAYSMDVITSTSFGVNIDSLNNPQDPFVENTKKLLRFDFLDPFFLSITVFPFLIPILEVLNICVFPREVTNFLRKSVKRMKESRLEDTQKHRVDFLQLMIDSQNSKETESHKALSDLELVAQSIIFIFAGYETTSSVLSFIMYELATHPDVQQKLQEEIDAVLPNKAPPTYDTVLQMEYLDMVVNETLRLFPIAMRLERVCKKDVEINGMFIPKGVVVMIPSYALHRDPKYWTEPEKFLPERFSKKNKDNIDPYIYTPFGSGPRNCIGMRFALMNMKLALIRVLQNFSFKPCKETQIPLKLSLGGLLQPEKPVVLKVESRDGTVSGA
Sequence of Cytochrome P450 2C9 (P11712 whole entry): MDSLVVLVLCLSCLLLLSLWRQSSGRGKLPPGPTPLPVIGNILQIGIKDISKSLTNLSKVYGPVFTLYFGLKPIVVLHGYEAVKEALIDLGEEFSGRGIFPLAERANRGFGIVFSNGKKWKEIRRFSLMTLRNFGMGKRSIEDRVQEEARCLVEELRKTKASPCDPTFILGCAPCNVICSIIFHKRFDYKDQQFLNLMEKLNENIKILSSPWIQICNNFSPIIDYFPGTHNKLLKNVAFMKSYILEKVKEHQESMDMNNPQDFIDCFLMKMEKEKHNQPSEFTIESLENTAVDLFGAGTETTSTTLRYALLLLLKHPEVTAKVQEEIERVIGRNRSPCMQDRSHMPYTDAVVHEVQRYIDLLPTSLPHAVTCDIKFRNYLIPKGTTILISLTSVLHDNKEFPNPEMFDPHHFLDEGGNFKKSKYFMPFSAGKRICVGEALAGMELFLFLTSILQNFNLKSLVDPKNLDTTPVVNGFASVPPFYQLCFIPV

Structure (SMILES) | IC50 [2] [µM] | IC50 [3] [µM] | IC50 [4] [µM] | Activity [6] [µM] | Activity [7] [µM] | IC50 [8] [µM] | CC50 [5] [µM] | further results
CCN(C(=O)c1ccccc1)c1ccc2c(c1)nc(NC(=O)c1ccno1)n2CCC(N)=O |  |  |  |  |  |  |  | IC50 [1]: 0.027 µM
CN(C(=O)c1ccccc1)c1ccc2c(c1)nc(NC(=O)c1ccc(C#N)nc1)n2CCC(N)=O | > 10 |  |  |  |  |  |  | 
Cc1cc(C(=O)Nc2nc3cc(N(C)C(=O)c4ccccc4)ccc3n2CCC(N)=O)ccc1C#N | > 10 |  |  |  |  |  |  | 
CCN(C(=O)c1ccccc1)c1ccc2c(c1)nc(NC(=O)c1ccc(C#N)cc1)n2CCC(N)=O | > 10 | > 10 | 0.31 | > 30 | > 30 | > 10 | > 10 | 
CC(=O)N1CCN(C(=O)c2cc(CSc3cnc(NC(=O)c4ccc(CNC(C)C(C)(C)C)cc4)s3)cc(C)c2C)CC1 (configuration not stated) |  |  |  |  |  |  |  | Activity [9]: Dose-dependent effect

More lines, main results first:

IC50 [2] [µM] | IC50 [3] [µM] | IC50 [4] [µM] | Activity [6] [µM] | Activity [7] [µM] | IC50 [8] [µM] | Structure (SMILES) | CC50 [5] [µM] | further results
> 10 | > 10 | 0.56 | > 30 | > 30 | > 10 | CN(C(=O)c1ccccc1)c1ccc2c(c1)nc(NC(=O)c1ccc(C#N)cc1)n2CCC(N)=O | > 10 | 
 | > 10 | 0.5 | > 30 | > 30 | > 10 | CN(C(=O)c1ccccc1)c1ccc2c(c1)nc(NC(=O)c1ccc(Cl)cc1)n2CCC(N)=O | 5.8 | 
0.32 |  |  |  |  |  | CN(C(=O)c1ccccc1)c1ccc2c(c1)nc(NC(=O)c1ccoc1)n2CCC(N)=O |  | IC50 [1]: 0.01 µM
> 10 |  |  |  |  |  | CN(C(=O)c1ccccc1)c1ccc2c(c1)nc(NC(=O)c1ccno1)n2CCC(N)=O |  | 
